In patent US20240350456A1, “COMPOSITIONS AND METHODS FOR DIAGNOSING AND TREATING INFLAMMATORY CONDITIONS” (RUTGERS, THE STATE UNIVERSITY OF NEW JERSEY, priority 2023, published 2024):

Legend:
[1] = system: human-derived Caco-2 cells; assay: In vitro transwell screening in Caco-2 cells, barrier disrupted by Clostridium difficile toxin (TEER and FITC-dextran permeability); assay type: cell-based; settings: for TEER, indole metabolites (FIG. 22A): applied to the lumen, TOX; for integrated TEER (area under the curve, FIG. 21B): luminal, C. difficile toxin
Excerpt: FIG. 20A-20B. In vitro screening of metabolites effective against leaky gut. FIG. 20A, Diagram of the in vitro transwell method used to evaluate efficacy of metabolites in protecting the leaky gut in human-derived Caco-2 cells. The luminal compartment represents the food side, and the basolateral the blood side. FIG. 20B, Transepithelial electrical resistance (TEER) measurements, and FITC-dextran measurements, evaluate the leakiness of the tight junction that regulates the pore (top) and leak (bottom) pathways of the gut. Ions (red), small molecules (blue), FITC-dextran (orange).
FIG. 21A-21D. Efficacy of tryptophan and vitamin B3 metabolites in protecting the gut barrier in vitro. FIG. 21A, TEER measurements of metabolites placed on luminal side of transwells for 72 hours. After 48 hours, the barrier was disrupted by the toxin of clostrium difficile (Cdiff). FIG. 21B, Integrated results of area under the curve using data from FIG. 21A. FIG. 21C, FITC-dextran permeability analysis of metabolites applied luminally. FIG. 21D, FITC-dextran permeability analysis of metabolites applied basolaterally.
FIG. 22A-22B. Efficacy of microbiota-derived indole metabolites in protecting the gut barrier. FIG. 22A, Integrated results of TEER measurements of metabolites placed on luminal side of transwells for 72 hours. After 48 hours, the barrier was disrupted by the toxin of clostrium difficile (Cdiff) FIG. 22B, FITC-dextran permeability analysis of metabolites from FIG. 22A applied luminally.
To perform in vitro screening of the metabolites effective against leaky gut, an in vitro transwell method was used. (FIG. 20A) The efficacy of these metabolites in protecting the leaky gut was analyzed in human-derived Caco-2 cells. Transepithelial electrical resistance (TEER) measurements evaluates the leakiness of the tight junction that regulates the pore (FIG. 20B, top) and leak (FIG. 20B, bottom) pathways of the gut. The higher the TEER, the less permeable the junction is to the movement of ions and small molecules. FITC-dextran is a large polysaccharide with a fluorescent moiety, typically used as a probe to assess the leakiness of the tight junction to large molecules like dextran. The faster the movement of FITC-dextran from lumen to blood, the greater the permeability.
(FIG. 21A) There was no effect of these metabolites on TEER when applied by themselves. After 48 h, the barrier was disrupted by the toxin of a common “bad” bacteria Clostridium difficile (Cdiff). TEER plummeted with this toxin (TOX, red line) compared to control (Veh, blue line). […] (FIG. 21A)

[2] = system: ZO-1 (Tjp1) and Ocln; assay: Intestinal organoids treated with LPS and metabolites: tight junction (TJ) expression, RT-qPCR and immunostaining; assay type: cell-based, mouse
Description: Intestinal organoids were isolated as previously described (Das et al., 2015; Pearce et al., 2018). Briefly, crypts were isolated from small intestine of conventional house C57BL/6 male mice (Taconic Laboratories, Hudson, NY) by shaking in isolation buffer (2 mM EDTA in PBS), then, crypts were harvested, processed, and suspended in crypt culture medium (CCM), which consisted of advanced DMEM/F12 (Life Technologies, Carlsbad, CA) supplemented with serum-free B27 (1:50; Life Technologies), N2 (1:100; Life Technologies), N-acetylcysteine (1 mM; Sigma-Aldrich, St. Louis, MO), recombinant murine epithelial growth factor (EGF, 50 ng/ml; Peprotech, Rocky Hill, NJ), Noggin (100 ng/ml; Peprotech), R-Spondin (500 ng/ml; Peprotech), Glutamax-I supplement (1:100; Life Technologies), penicillin/streptomycin (500 μg/ml; Life Technologies), and HEPES ([…]; Life Technologies). Crypts were resuspended in 70% Matrigel (density ˜450 crypts per dome, 2 domes per well in 24-well plate) and allowed to solidify at 37° C. for 20 min. CCM (1.5 mL) was then added to each well. Cultures were incubated in a humidified incubator at 37° C., and CCM was changed daily. Intestinal organoid treatment with LPS and metabolites
(§1) We had 2 series of metabolite-treated organoid experiments, i.e., 1) organoid from conventional C57BL6 mice and 2) Ocln KO and littermate WT control as a gift from Prof. Jerrold Turner (Harvard University). […] Seeding is designated as day 0. On day 3 of culture, the existing media in the wells were completely removed before adding treatments. LPS (1 μg/mL) with or without metabolites, i.e., IPA (0.1 mM) (Li et al., 2021), IAM (200 μM) (Vyhlidalova et al., 2020), MNA (12 ng/ml) (Liu et al., 2015), CARN (20 mM) (Boldyrev et al., 2013) or ASA (1 μM) (Erez et al., 2011) were each added in CCM at known physiological concentrations, incubated for 48 hours, thereafter, organoid was harvested for RNA extraction, and paraformaldehyde fixation for immunostaining.
(§2) Total RNA was extracted from the intestinal organoids using a commercially available kit (RNeasy Microkit; Qiagen, MD, Cat. #74004) following manufacturer's instructions. mRNA samples were converted to cDNA using Bio-Rad's iScript Reverse Transcription Supermix for RT-qPCR (Bio-Rad Laboratories, Hercules, CA, Cat. #1708840). cDNA was then used for RT-qPCR (Mx3000P. Stratagene, La Jolla, CA) to analyze several genes using Maxima SYBR Green qPCR Master Mix (Thermo Fisher Scientific, Waltham, MA) and primers (Integrated DNA Technologies, Coralville, IA). Thermal profile for three-step cycling was 10 min at 95° C. for initial denaturation; then 40 cycles of 15 sec at 95° C. for denaturation, 30 sec at 65° C. for annealing, and 30 sec at 75° C. for extension. Primers used are as follows: β-actin (Actb), forward 5′-[…]-3′ (SEQ ID NO: 5), reverse 5′-[…]-3′ (SEQ ID NO: 6); ZO-1 (Tjp1), forward 5′-[…]-3′ (SEQ ID NO: 7), reverse 5′-[…]-3′ (SEQ ID NO: 8), Ocln, forward 5′-[…]-3′ (SEQ ID NO: 9), reverse 5′-[…]-3′ (SEQ ID NO: 10); Lyz1, forward 5′-ATGGCTACCGTGGTGTCAAG-3′ (SEQ ID NO: 11), reverse 5′-CGGTCTCCACGGTTGTAGTT-3′ (SEQ ID NO: 12); Tff3, forward 5′-TAATGCTGTTGGTGGTCCTG-3′ (SEQ ID NO: 13), reverse 5′-CAGCCACGGTTGTTACACTG-3′ (SEQ ID NO: 14). All samples were normalized to β actin expression. Gene expression levels are depicted as fold change relative to the control group.
(§3) Immunocytochemistry followed earlier work (Pearce et al., 2018). Briefly, organoids were extracted from Matrigel by using cell recovery solution (Corning, Cat. No. 354253), processed then fixed in 4% paraformaldehyde for 15 min and dehydrated with 70% ethanol and kept in 4° C. until embedded in paraffin. On the day of embedding, organoids were gently spun down to a pellet (250 g for 5 min), then the supernatant was removed, the pellet resuspended in agarose and embedded in paraffin. […]

[3] = system: Tff3 and Lyz1 (goblet and Paneth cells); assay: Organoids: goblet and Paneth cell transcripts (Tff3, Lyz1) and cell numbers; assay type: cell-based, mouse; settings: enteroids
Description: as §1, §2, §3

SMILES	TEER, indole metabolites (FIG. 22A) [1]	integrated TEER (area under the curve, FIG. 21B) [1]	other results
N#CCc1c[nH]c2ccccc12 [Indole-3-acetonitrile]	clearly protective against TOX-induced decreases in TEER	–	–
O=C(O)c1c[nH]c2ccccc12 [Indole-3-carboxylic.acid, indole-3-carboxylic acid]	clearly protective against TOX-induced decreases in TEER	–	–
O=C(O)CCc1c[nH]c2ccccc12 [Indole-3-propionic.acid, indole-3-propionic acid]	clearly protective against TOX-induced decreases in TEER	–	gene expression of Ocln ([2]; ex vivo, in the presence of the barrier disruptor): increased gene expression of Ocln; TJ expression at the protein and mRNA levels ([2]; in the presence of LPS (1 μg/mL), 48 hr): increased TJ expression; goblet and Paneth cell transcripts and cell numbers [3]: reduced goblet and Paneth cell transcripts as well as cell numbers
O=C(O)C(O)Cc1c[nH]c2ccccc12 (stereo not shown) [Indolelactic.acid, indole-3-lactic acid]	clearly protective against TOX-induced decreases in TEER	–	–
NC(=O)c1ccc[n+]([C@@H]2O[C@H](COP(=O)([O-])OP(=O)(O)OC[C@H]3O[C@@H](n4cnc5c(N)ncnc54)[C@H](O)[C@@H]3O)[C@@H](O)[C@H]2O)c1 [NAD]	–	protected the cells from barrier disruption by TOX	–
NC(=O)c1cccnc1 [NAM, nicotinamide]	–	protected the cells from barrier disruption by TOX	–
NC(=O)c1ccc[n+]([C@@H]2O[C@H](CO)[C@@H](O)[C@H]2O)c1 [Nicotinamide.riboside, nicotinamide riboside]	–	protected the cells from barrier disruption by TOX	–
